Reference: publication PMC5225172 (Cancer Chemotherapy and Pharmacology, 2016)
“Also recorded” adds a separate entry of the source.

Key:
class I PI3K = settings: compared with the p110β and p110γ isoforms; cited from earlier work
[1] = tested on: patients with advanced solid tumors and non-Hodgkin's lymphomas; settings: cited from earlier work
clinical = settings: human, in vivo
Experimental: Additional PK samples were collected at either 72, 96, or 120 h following the start of infusion. […] Blood pressure monitoring was performed every 5 min before dosing on cycle 1, day 1 until the observation of two consecutive measurements <150 mmHg (systolic) and <90 mmHg (diastolic). […] Serum samples for glucose analysis were collected immediately before the first infusion and in parallel with PK sampling through to 49 h post-dose. Glucose samples taken at 25 h post-dose were to be fasting, where possible and if deemed safe. Capillary blood glucose testing was to be performed for hyperglycemia management as determined appropriate by the investigator; hyperglycemia was defined as capillary blood glucose >200 mg/dL and was to be treated with short-acting insulin. Tumor measurement and disease assessment according to RECIST version 1.1 were conducted every two cycles by the investigator. This study was primarily a descriptive safety and tolerability trial, and no formal sample-size estimation was performed. Summary statistics were used for demographics, baseline characteristics, and PK parameters. Frequency tables were used for categorical variables.

[2] = tested on: advanced or refractory solid tumors; test: Tumor response and disease assessment by RECIST version 1.1; type: in vivo, human
Description: (§1) Screening comprised: provision of written, informed consent; demographics; baseline characteristics; concomitant medications; safety assessments (adverse events [defined as any new finding not present in the patient’s medical history, or a worsening of a prior medical history finding], vital signs, laboratory tests, physical examination, 12-lead electrocardiogram, multigated acquisition scan, or echocardiogram); tumor measurements by computed tomography or magnetic resonance imaging; disease assessment as defined by RECIST version 1.1; ophthalmologic examination; chest computed tomography; and ECOG PS assessment. The following assessments were also performed on cycle 1, day 1: safety; ECOG PS assessment; concomitant medications; blood samples for PK analysis; serum samples for glucose analysis; serum insulin; urinalysis; serum ketones; and post-dose echocardiogram. Safety assessments, blood pressure measurements, blood sampling for PK analysis, and urinalysis were also performed on days 8 and 15 of cycle 1.
Additional PK samples were collected at either 72, 96, or 120 h following the start of infusion. PK samples were also collected on cycle 1, day 15 at 0, 0.5, 1, 1.5, 2, 3, 5, 8, 11, and 25 h following the start of infusion and on cycle 3, day 15 at 0, 0.5, 1, 1.5, 2, 3, 5, and 8 h following the start of infusion. Blood pressure monitoring was performed every 5 min before dosing on cycle 1, day 1 until the observation of two consecutive measurements <150 mmHg (systolic) and <90 mmHg (diastolic). […] Serum samples for glucose analysis were collected immediately before the first infusion and in parallel with PK sampling through to 49 h post-dose. Glucose samples taken at 25 h post-dose were to be fasting, where possible and if deemed safe. Capillary blood glucose testing was to be performed for hyperglycemia management as determined appropriate by the investigator; hyperglycemia was defined as capillary blood glucose >200 mg/dL and was to be treated with short-acting insulin. Tumor measurement and disease assessment according to RECIST version 1.1 were conducted every two cycles by the investigator.

[3] = tested on: advanced solid tumors and non-Hodgkin's lymphoma; set-up: method as in PMID 27672108; settings: cited from earlier work
[4] = Phase I safety and tolerability: adverse events (NCI CTCAE v4.03), DLT, MTD; settings: human, in vivo, iv
Experimental: Dosing on days 8 and 15 was permitted within a window of ±1 day if necessary, and dosing was considered missed if delayed by more than 1 day. Dose delays of up to 2 weeks were permitted for day 1 of cycle 2 or later, although for days 8 and 15 of cycle 2 and subsequent cycles, dosing within a window of ±3 days was permitted, except for in cycle 3, where dosing was to be administered within ±1 day of days 8 and 15.
Patients were enrolled into cohort 1 and were evaluated for the occurrence of a dose-limiting toxicity (DLT) as defined by the National Cancer Institute Common Terminology Criteria for Adverse Events version 4.03. […] Completion of cycle 1 in cohort 1 constituted study completion.
Protocol-defined DLTs included non-hematologic adverse events of grade ≥3. Hyperglycemia defined as a DLT was to be determined based on serum glucose values. Hematologic DLTs were defined as grade 4 neutropenia for ≥3 days, an absolute neutrophil count <1000 with fever ≥38.5 °C, and grade 4 thrombocytopenia. Patients with non-hematologic DLTs were to discontinue study treatment.
as §1

## COc1c(OCCCN2CCOCC2)ccc2c1N=C(NC(=O)c1cnc(N)nc1)N1CCN=C21 [copanlisib, Copanlisib]
Class I PI3K
  PI3K isoform preference: preferential activity against the p110α and p110δ isoforms of PI3K
[1]; Patnaik et al. study
  Grade 3 hypertension: 19%
  Incidence of all-grade hypertension: 30%
[1]; first-in-human Phase I study, non-Japanese patients, once weekly
  Maximum tolerated dose (MTD): 0.8 mg/kg
[1]; first-in-human study
  Patients with grade ≥3 elevated aminotransferase levels: < 10%
  Time of hyperglycemia peak after the start of infusion: 5 to 8 h
  Time of hypertension peak after the start of infusion: 1 to 2 h
clinical; 0.4 mg/kg, Geometric mean terminal half-life
  half-life: ~32 h
clinical; 0.8 mg/kg, Geometric mean terminal half-life
  half-life: ~36 h
clinical; 0.8 mg/kg, Plasma half-life
  half-life: 32 to 36 h
clinical; iv, 0.4 mg/kg
  AUC: 1.4 µg·h/mL
clinical; iv, 0.4 mg/kg, AUC(0–8)
  AUC(0-t): 0.483 µg·h/mL
clinical; iv, 0.4 mg/kg, AUC(0–25)
  AUC(0-t): 0.789 µg·h/mL
clinical; iv, 0.4 mg/kg, C max
  Cmax: 0.215 µg/mL
clinical; iv, 0.4 mg/kg, t 1/2 (half-life associated with terminal slope)
  half-life: 32.2 h
clinical; iv, 0.4 mg/kg, tmax
  Tmax: 1.02 h
clinical; iv, 0.8 mg/kg
  AUC: 2.35 µg·h/mL
  AUC(0–25): 1290 (10.1) µg·h/L
  Tmax: 0.75 [0.48-1.05] h
clinical; iv, 0.8 mg/kg, AUC(0–8)
  AUC(0-t): 0.812 µg·h/mL
clinical; iv, 0.8 mg/kg, AUC(0–25)
  AUC(0-t): 1.28 µg·h/mL
clinical; iv, 0.8 mg/kg, t1/2 (half-life associated with terminal slope)
  half-life: 35.6 h
clinical; iv, 0.8 mg/kg, tmax
  Tmax: 0.53 h
[2]; Cohort 1, 0.4 mg/kg (n = 3)
  Best overall response: Complete response: 0 n (%)
  Best overall response: Partial response: 0 n (%)
  Best overall response: Progressive disease (by proven measurement): 2 (66.7) n (%)
  Best overall response: Stable disease: 1 (33.3) n (%)
  Overall disease control rate (complete response + partial response + stable disease): 1 (33.3) n (%)
  Overall response rate (complete response + partial response): 0 n (%)
[2]; Cohort 2, 0.8 mg/kg (n = 7)
  Best overall response: Complete response: 0 n (%)
  Best overall response: Partial response: 0 n (%)
  Best overall response: Progressive disease (by proven measurement): 4 (57.1) n (%)
  Best overall response: Stable disease: 3 (42.9) n (%)
  Overall disease control rate (complete response + partial response + stable disease): 3 (42.9) n (%)
  Overall response rate (complete response + partial response): 0 n (%)
[2]; Total (n = 10)
  Best overall response: Complete response: 0 n (%)
  Best overall response: Partial response: 0 n (%)
  Best overall response: Progressive disease (by proven measurement): 6 (60.0) n (%)
  Best overall response: Stable disease: 4 (40.0) n (%)
  Overall disease control rate (complete response + partial response + stable disease): 4 (40.0) n (%)
  Overall response rate (complete response + partial response): 0 n (%)
[2]; cohort 1, 0.4 mg/kg
  Disease control rate: 33.3%
[2]; cohort 1, 0.4 mg/kg, 95% CI 50–77
  Median time to progression: 52 days
[2]; cohort 1, stable disease as best response
  Time to progression, single patient: 77 days
[2]; cohort 2, 0.8 mg/kg
  Disease control rate: 42.9%
[2]; cohort 2, 0.8 mg/kg, 95% CI 21–not estimated
  Median time to progression: 53 days
[2]; cohort 2, gastrointestinal stromal tumor, stable disease, discontinued for thrombocytopenia
  Time to progression, single patient (censored): 176 days
[2]; cohort 2, stable disease as best response
  Time to progression, single patient: 82 days
[2]; cohort 2, stable disease, discontinued because of grade 3 diarrhea
  Time to progression, single patient (censored): 50 days
[2]; overall, after 1 month
  Rate of progression-free survival: 0.80 (95% CI 0.41–0.95)
[2]; overall, after 2 months
  Rate of progression-free survival: 0.35 (95% CI 0.08–0.64)
[2]; overall, after 3 months
  Rate of progression-free survival: 0.12 (95% CI 0.01–0.40)
[2]; overall, 95% CI 21–82
  Median time to progression: 52 days
[2]; ten patients
  Complete or partial response: No patients achieved a complete or partial response; also recorded: none experienced a complete or partial response
  Disease control rate: 40%
  Progressive disease as best response: 60.0%
  Stable disease as best response: 40.0%
[3]; 25 patients in solid-tumor expansion cohort treated at the MTD
  Objective response rate: 12%
[3]; advanced solid-tumor expansion cohort
  Disease control rate: 44%
[3]; first-in-human study
  Antitumor activity in patients with non-Hodgkin's lymphoma: seven out of nine patients
[4]
  MTD at 28 days: 0.8 mg/kg
